The test addresses T1, full-length human PKCι (Homo sapiens, UniProt P41743).
T1 construct: Recombinant, full-length human PKCι expressed in Sf21 insect cells is also commercially available; purchased; host or cells: Sf21 insect cells
T1 sequence (P41743 1-596): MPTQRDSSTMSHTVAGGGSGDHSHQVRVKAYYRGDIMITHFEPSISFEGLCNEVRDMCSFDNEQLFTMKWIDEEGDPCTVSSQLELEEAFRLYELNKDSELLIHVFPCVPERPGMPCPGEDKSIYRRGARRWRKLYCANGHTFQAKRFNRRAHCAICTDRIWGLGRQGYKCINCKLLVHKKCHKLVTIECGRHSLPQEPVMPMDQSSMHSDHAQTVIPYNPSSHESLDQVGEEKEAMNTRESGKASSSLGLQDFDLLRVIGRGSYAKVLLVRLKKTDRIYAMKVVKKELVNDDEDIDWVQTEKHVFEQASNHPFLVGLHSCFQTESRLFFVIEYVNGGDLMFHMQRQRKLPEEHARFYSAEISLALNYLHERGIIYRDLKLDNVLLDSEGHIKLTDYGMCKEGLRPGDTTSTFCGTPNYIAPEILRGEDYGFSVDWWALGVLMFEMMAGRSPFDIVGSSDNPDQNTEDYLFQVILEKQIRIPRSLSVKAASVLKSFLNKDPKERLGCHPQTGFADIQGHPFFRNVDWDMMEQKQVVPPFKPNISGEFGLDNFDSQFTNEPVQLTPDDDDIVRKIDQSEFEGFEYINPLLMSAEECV
Briefly: PKCι IC50 IMAP assay, full-length PKCι at 150 μM ATP. Format: biochemical. The note with it: read-out: IC50 in IMAP assay against full length PKCi at 150 μM ATP. From the text:
Assays are based on the ability of PKCι to phosphorylate a commercially available peptide substrate in vitro. The peptide substrate is FAM-PKCε pseudopeptide derived peptide, and comprises the amino acid sequence 5FAM-[…]-NH2. Recombinant, full-length human PKCι expressed in Sf21 insect cells is also commercially available. Recombinant, kinase-domain human PKCι is expressed and purified in-house.
The procedure below explains how dose response curves for inhibitors of PKCι are obtained. The screen described is for a 384 well format but the assay can be adapted to 1536 or other formats as required.
Compounds to be tested are dissolved in 100% DMSO. Compounds are diluted as required to give a final concentration of 4% DMSO (v/v) in the assay. 1 μl is plated into 384 well black low-binding flat bottomed assay plates which are used immediately. Dilutions and additions of compound to assay plates are carried out using Matrix WellMate® and Matrix PlateMate® Plus liquid handling systems.
On the day of the screen PKCι/substrate working solution, and ATP working solution, are prepared in buffer containing 20 mM tris-HCl pH7.5, 10 mM MgCl2, 0.01% Triton X100, 250 μM EGTA and 1 mM DTT. The final concentration of PKCι used varies depending on the batch of protein but is typically 15 pM. The final concentration of peptide substrate in the assay is 100 nM. ATP is used at a final concentration of 150 μM or 25 μM in the assays containing full-length or kinase-domain PKCι respectively, which corresponds to five times or equal to the KM^APP for ATP for each enzyme, respectively. The final buffer concentration in the assay is 18 mM tris-HCl pH7.5, 9 mM MgCl2, 0.009% Triton X100, 225 μM EGTA and 0.9 mM DTT. Relevant controls are included, namely no compound and no enzyme. 5 μl PKCι/substrate working solution at 30 pM and 200 nM, respectively, is added to the wells, followed by 4 μl ATP working solution at 375 μM or 62.5 μM for full-length or kinase-domain PKCι respectively, using a 16 channel Matrix pipette. The reaction is allowed to incubate for 60 minutes at room temperature, before the reaction is stopped and developed by the addition of 20 μl IMAP™ development reagent (Molecular Devices). IMAP development reagent consists of 0.25% (v/v) IMAP progressive binding reagent, 17% (v/v) IMAP progressive binding buffer A and 3% (v/v) IMAP progressive binding buffer B. The plates are then incubated for 2 hours at room temperature before being read using an appropriate plate reader, for example a Molecular Devices HT Analyst or a BMG Pherastar. Plates are read using a fluorescence polarisation protocol with excitation at 485 nm and emission at 530 nm, and dichroic mirror at 505 nm.
Percentage inhibition values are calculated from fluorescence polarisation values, using the no compound and no enzyme control values as 0% and 100% inhibition, respectively. IC50 determination is performed with ExcelFit software (IDBS) using curve fit 205. Z′ factors are determined for each plate tested and are all above 0.5.

Each structure is given as a SMILES string. A value given as a limit tells only on which side of the number the result lay.

In general, IC50 refers to the concentration at which inhibition is half-maximal. As for `Cn1nc(Nc2cc(-c3nc(N4CCNCC4)c4c(C5CC5)cncc4n3)ccn2)c2ccccc21` [Example 2061, [4-(5-Cyclopropyl-4-piperazin-1-yl-pyrido[3,4-d]pyrimidin-2-yl)-pyridin-2-yl]-(1-methyl-1H-indazol-3-yl)-amine], the concentration for half-maximal inhibition (IC50) is < 100 nM. Consider `CN1CCN(c2cccc(Nc3cc(-c4nc(N5CCNCC5)c5c(C6CC6)cncc5n4)ccn3)c2)CC1` [Example 681, [4-(5-Cyclopropyl-4-piperazin-1-yl-pyrido[3,4-d]pyrimidin-2-yl)-pyridin-2-yl]-[3-(4-methyl-piperazin-1-yl)-phenyl]-amine], for which the IC50 is < 100 nM.

On to `COc1cncc2nc(-c3ccnc(NC(=O)c4cccs4)c3)nc(N[C@@H]3CCNC3)c12` [Example 240, Thiophene-2-carboxylic acid {4-[5-methoxy-4-((R)-pyrrolidin-3-ylamino)-pyrido[3,4-d]pyrimidin-2-yl]-pyridin-2-yl}-amide], for which the half-maximal inhibitory concentration (IC50) is < 100 nM.

On to `Cc1nccc2c(N3CCNCC3)nc(-c3ccncc3)nc12` [Example 160, 8-Methyl-4-piperazin-1-yl-2-pyridin-4-yl-pyrido[3,4-d]pyrimidine], for which the half-maximal inhibitory concentration (IC50) lay in the range of 10000 to 40000 nM. `O=C(NCCN1CCCC1)C1CCN(c2nc(-c3ccnc(Nc4c(F)cccc4F)c3)nc3cncc(C4CC4)c23)CC1` [Example 668, 1-{5-Cyclopropyl-2-[2-(2,6-difluoro-phenylamino)-pyridin-4-yl]-pyrido[3,4-d]pyrimidin-4-yl}-piperidine-4-carboxylic acid (2-pyrrolidin-1-yl-ethyl)-amide]: the concentration for half-maximal inhibition (IC50) was < 100 nM. With `COc1ccc(CC(=O)Nc2cc(-c3nc(N4CCNCC4)c4c(OC)cncc4n3)ccn2)cc1` [Example 374, 2-(4-Methoxy-phenyl)-N-[4-(5-methoxy-4-piperazin-1-yl-pyrido[3,4-d]pyrimidin-2-yl)-pyridin-2-yl]-acetamide], the IC50 is < 100 nM. Regarding `COc1cncc2nc(-c3ccncc3)nc(NC[C@@H](N)Cc3ccccc3)c12` [Example 9, N-[(2S)-2-amino-3-phenylpropyl]-5-methoxy-2-(pyridin-4-yl)pyrido[3,4-d]-pyrimidin-4-amine], the IC50 was < 100 nM. Consider `COc1cncc2nc(-c3ccnc(Nc4c(F)ccc(F)c4F)c3)nc(N3CCN[C@@H](CF)C3)c12` [Example 237, {4-[4-((R)-3-Fluoromethyl-piperazin-1-yl)-5-methoxy-pyrido[3,4-d]pyrimidin-2-yl]-pyridin-2-yl}-(2,3,6-trifluoro-phenyl)-amine], for which the half-inhibitory concentration (IC50) lay in the range of 1000 to 10000 nM. Consider `c1ccc2c(c1)OCCC2Nc1cc(-c2nc(N3CCNCC3)c3c(C4CC4)cncc3n2)ccn1` (centres unmarked) [Example 712, Chroman-4-yl-[4-(5-cyclopropyl-4-piperazin-1-yl-pyrido[3,4-d]pyrimidin-2-yl)-pyridin-2-yl]-amine], for which the half-maximal inhibitory concentration (IC50) is < 100 nM. Take `COc1cncc2nc(-c3ccnc(Nc4ccc(C(F)(F)F)cc4)c3)nc(N3CCNCC3)c12` [Example 207, [4-(5-Methoxy-4-piperazin-1-yl-pyrido[3,4-d]pyrimidin-2-yl)-pyridin-2-yl]-(4-trifluoromethyl-phenyl)-amine]: the half-inhibitory concentration (IC50) lay in the range of 100 to 1000 nM. As for `COc1cncc2nc(-c3ccnc(NC4CCCCC4)c3)nc(N3CCNCC3)c12` [Example 242, Cyclohexyl-[4-(5-methoxy-4-piperazin-1-yl-pyrido[3,4-d]pyrimidin-2-yl)-pyridin-2-yl]-amine], the IC50 was < 100 nM. As to `c1cc(-c2nc(N3CCNCC3)c3c(C4CCC4)cncc3n2)cc(NC2CCOCC2)n1` [Example 2210, [4-(5-Cyclobutyl-4-piperazin-1-yl-pyrido[3,4-d]pyrimidin-2-yl)-pyridin-2-yl]-(tetrahydro-pyran-4-yl)-amine], the concentration for half-maximal inhibition (IC50) was < 100 nM. Regarding `CS(=O)(=O)C[C@H]1CN(c2nc(-c3ccnc(Nc4ccccc4)c3)nc3cncc(C4CC4)c23)CCN1` [Example 769, {4-[5-Cyclopropyl-4-((R)-3-methanesulfonyl-methyl-piperazin-1-yl)-pyrido[3,4-d]pyrimidin-2-yl]-pyridin-2-yl}-phenyl-amine], the half-maximal inhibitory concentration (IC50) is < 100 nM. Turning to `COc1cncc2nc(-c3ccnc(NC4CCCC4)c3)nc(N3CCNCC3)c12` [Example 241, Cyclopentyl-[4-(5-methoxy-4-piperazin-1-yl-pyrido[3,4-d]pyrimidin-2-yl)-pyridin-2-yl]-amine], the IC50 was < 100 nM. Turning to `FC(F)(F)C1(c2cc3c(-c4nc(N5CCNCC5)c5c(C6CCC6)cncc5n4)ccnc3[nH]2)CCC1` [Example 2183, 5-Cyclobutyl-4-piperazin-1-yl-2-[2-(1-trifluoromethyl-cyclobutyl)-1H-pyrrolo[2,3-b]pyridin-4-yl]-pyrido[3,4-d]pyrimidine], the concentration for half-maximal inhibition (IC50) is < 100 nM. For the compound `O[C@@H]1CCN(c2nc(-c3ccnc(Nc4ccccc4)c3)nc3cncc(C4CC4)c23)C[C@H]1O` (racemic) [Example 676, (+/−)-(trans)-1-[5-Cyclopropyl-2-(2-phenylamino-pyridin-4-yl)-pyrido[3,4-d]pyrimidin-4-yl]-piperidine-3,4-diol], the concentration for half-maximal inhibition (IC50) was 100 to 1000 nM. As to `FC(F)(F)c1ccc(Nc2cc(-c3nc(N[C@@H]4CCNC4)c4ccncc4n3)ccn2)nc1` [Example 351, (R)-Pyrrolidin-3-yl-{2-[2-(5-trifluoromethyl-pyridin-2-ylamino)-pyridin-4-yl]-pyrido[3,4-d]pyrimidin-4-yl}-amine], the concentration for half-maximal inhibition (IC50) is < 100 nM. With `c1ccc(-c2ccc(Nc3cc(-c4nc(N5CCNCC5)c5c(C6CC6)cncc5n4)ccn3)cc2)cc1` [Example 683, Biphenyl-4-yl-[4-(5-cyclopropyl-4-piperazin-1-yl-pyrido[3,4-d]pyrimidin-2-yl)-pyridin-2-yl]-amine], the 50% inhibitory concentration (IC50) lay within 1000 to 10000 nM. On to `FC(F)(F)C1CN(c2nc(-c3ccnc4[nH]ccc34)nc3cncc(C4CC4)c23)CCN1` (centres unmarked) [Example 1218, 5-Cyclopropyl-2-(1H-pyrrolo[2,3-b]pyridin-4-yl)-4-(3-trifluoromethyl-piperazin-1-yl)-pyrido[3,4-d]pyrimidine], for which the concentration for half-maximal inhibition (IC50) is < 100 nM. `COc1cncc2nc(-c3ccnc(Nc4ccccc4)c3)nc(N3CCC(N4CCOCC4)CC3)c12` [Example 354, {4-[5-Methoxy-4-(4-morpholin-4-yl-piperidin-1-yl)-pyrido[3,4-d]pyrimidin-2-yl]-pyridin-2-yl}-phenyl-amine]: the IC50 was 1000 to 10000 nM.

Consider `Fc1cc(C2CC2)ccc1Nc1cc(-c2nc(N3CCNCC3)c3c(C4CC4)cncc3n2)ccn1` [Example 641, (4-Cyclopropyl-2-fluoro-phenyl)-[4-(5-cyclopropyl-4-piperazin-1-yl-pyrido[3,4-d]pyrimidin-2-yl)-pyridin-2-yl]-amine], for which the IC50 is < 100 nM. With `CC(=O)Nc1cc(-c2nc(N3CCNC(CC(F)(F)F)C3)c3c(C4CC4)cncc3n2)ccn1` (centres unmarked) [Example 626, N-(4-{5-Cyclopropyl-4-[3-(2,2,2-trifluoro-ethyl)-piperazin-1-yl]-pyrido[3,4-d]pyrimidin-2-yl}-pyridin-2-yl)-acetamide], the IC50 was < 100 nM. For the compound `COc1cncc2nc(-c3ccnc(NC(=O)Cc4cccc(C#N)c4)c3)nc(N3CCNCC3)c12` [Example 356, 2-(3-Cyano-phenyl)-N-[4-(5-methoxy-4-piperazin-1-yl-pyrido[3,4-d]pyrimidin-2-yl)-pyridin-2-yl]-acetamide], the IC50 was < 100 nM.

For the origin of these results see patent US9914730B2, “Azaquinazoline inhibitors of Atypical protein Kinase C” (Ignyta, Inc., priority 2012, dated 2018).
